26 molecules from article PMC8162404, “Proteomimetic surface fragments distinguish targets by function” (Chemical Science, 2020) can be followed below.

In one test the target is T1, Gal-1 (Homo sapiens, UniProt P09382).
T1 construct: made in house; host or cells: E. coli BL21(DE3)
Nature of the test: Pull-down assay with immobilized protein and LSM libraries. The class given is binding. Particulars: H12 library; 1:1 binding assumed; read-out: Surface mapping KD (apparent). The essentials:
(§1)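 Buffers were HEPES pH 7.4 with 150 mM NaCl, plus 1 mM TCEP and 1 mM CaCl2 (50 mM HEPES) for S100A4 and S100B, 1 mM TCEP for Gal-1, and no additive for RecQ-WH. Immobilized protein at 64 µM was equilibrated 30 min with the LSM sublibrary, and unbound probes were measured by LC-MS.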

A further test concerns the target T2, S100B (Homo sapiens, UniProt P04271).
T2 construct: made in house; host or cells: Escherichia coli BL21(DE3)
T2 sequence (P04271 1-92): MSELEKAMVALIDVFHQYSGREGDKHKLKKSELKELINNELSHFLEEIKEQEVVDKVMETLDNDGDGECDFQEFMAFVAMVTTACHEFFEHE
Described as above. The class given is binding. Particulars: H12 library; 1:1 binding assumed; read-out: Surface mapping KD (apparent). Put shortly: as §1

T1 sequence (P09382 whole entry): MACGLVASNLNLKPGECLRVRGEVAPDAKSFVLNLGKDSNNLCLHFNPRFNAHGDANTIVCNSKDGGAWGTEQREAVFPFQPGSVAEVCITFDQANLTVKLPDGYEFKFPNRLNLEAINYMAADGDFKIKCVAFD

Take `CC(C)C[C@@H](CC(=O)N[C@H]1CCC[C@@H]1C(=O)N[C@H]1CCC[C@@H]1C(=O)N[C@@H](C)CC(=O)N[C@H]1CCC[C@@H]1C(=O)N[C@H]1CCC[C@@H]1C(N)=O)NC(=O)[C@H]1CCC[C@@H]1NC(=O)[C@H]1CCC[C@@H]1N` [H12 LA]: the Kd turned out to be 438 µM at Gal-1 and 293 µM on S100B.
As to `CC(C)C[C@@H](CC(=O)N[C@H]1CCC[C@@H]1C(=O)N[C@H]1CCC[C@@H]1C(=O)N[C@@H](CC(N)=O)CC(=O)N[C@H]1CCC[C@@H]1C(=O)N[C@H]1CCC[C@@H]1C(N)=O)NC(=O)[C@H]1CCC[C@@H]1NC(=O)[C@H]1CCC[C@@H]1N` [H12 LN], the Kd came out at 423 µM on Gal-1 and 264 µM on S100B.
For the molecule `CC(C)C[C@@H](CC(=O)N[C@H]1CCC[C@@H]1C(=O)N[C@H]1CCC[C@@H]1C(=O)N[C@@H](CCC(N)=O)CC(=O)N[C@H]1CCC[C@@H]1C(=O)N[C@H]1CCC[C@@H]1C(N)=O)NC(=O)[C@H]1CCC[C@@H]1NC(=O)[C@H]1CCC[C@@H]1N` [H12 LQ], the Kd at Gal-1 was 446 µM; on S100B, 348 µM.
Take `CSCC[C@@H](CC(=O)N[C@H]1CCC[C@@H]1C(=O)N[C@H]1CCC[C@@H]1C(=O)N[C@@H](C)CC(=O)N[C@H]1CCC[C@@H]1C(=O)N[C@H]1CCC[C@@H]1C(N)=O)NC(=O)[C@H]1CCC[C@@H]1NC(=O)[C@H]1CCC[C@@H]1N` [H12 MA]: the Kd worked out at 194 µM at Gal-1 and 224 µM at S100B.
For `CSCC[C@@H](CC(=O)N[C@H]1CCC[C@@H]1C(=O)N[C@H]1CCC[C@@H]1C(=O)N[C@@H](CC(=O)O)CC(=O)N[C@H]1CCC[C@@H]1C(=O)N[C@H]1CCC[C@@H]1C(N)=O)NC(=O)[C@H]1CCC[C@@H]1NC(=O)[C@H]1CCC[C@@H]1N` [H12 MD], in that order: 169 µM and 471 µM.
For `CSCC[C@@H](CC(=O)N[C@H]1CCC[C@@H]1C(=O)N[C@H]1CCC[C@@H]1C(=O)N[C@@H](CCC(=O)O)CC(=O)N[C@H]1CCC[C@@H]1C(=O)N[C@H]1CCC[C@@H]1C(N)=O)NC(=O)[C@H]1CCC[C@@H]1NC(=O)[C@H]1CCC[C@@H]1N` [H12 ME], the Kd at Gal-1 came out at 180 µM; on S100B, 417 µM.
For `CSCC[C@@H](CC(=O)N[C@H]1CCC[C@@H]1C(=O)N[C@H]1CCC[C@@H]1C(=O)N[C@@H](CCCCN)CC(=O)N[C@H]1CCC[C@@H]1C(=O)N[C@H]1CCC[C@@H]1C(N)=O)NC(=O)[C@H]1CCC[C@@H]1NC(=O)[C@H]1CCC[C@@H]1N` [H12 MK], the results for the Kd on Gal-1 and at S100B were 172 µM and 78 µM, respectively.
For the molecule `CSCC[C@@H](CC(=O)N[C@H]1CCC[C@@H]1C(=O)N[C@H]1CCC[C@@H]1C(N)=O)NC(=O)[C@H]1CCC[C@@H]1NC(=O)[C@H]1CCC[C@@H]1NC(=O)C[C@H](CCSC)NC(=O)[C@H]1CCC[C@@H]1NC(=O)[C@H]1CCC[C@@H]1N` [H12 MM], the figures for the Kd at Gal-1 and at S100B were 364 µM and 166 µM, respectively.
`CSCC[C@@H](CC(=O)N[C@H]1CCC[C@@H]1C(=O)N[C@H]1CCC[C@@H]1C(=O)N[C@@H](CC(N)=O)CC(=O)N[C@H]1CCC[C@@H]1C(=O)N[C@H]1CCC[C@@H]1C(N)=O)NC(=O)[C@H]1CCC[C@@H]1NC(=O)[C@H]1CCC[C@@H]1N` [H12 MN]: the Kd turned out to be 195 µM at Gal-1 and 177 µM at S100B.
As for `CSCC[C@@H](CC(=O)N[C@H]1CCC[C@@H]1C(=O)N[C@H]1CCC[C@@H]1C(=O)N[C@@H](CCC(N)=O)CC(=O)N[C@H]1CCC[C@@H]1C(=O)N[C@H]1CCC[C@@H]1C(N)=O)NC(=O)[C@H]1CCC[C@@H]1NC(=O)[C@H]1CCC[C@@H]1N` [H12 MQ], the Kd on Gal-1 worked out at 173 µM; at S100B, 192 µM.
Regarding `CSCC[C@@H](CC(=O)N[C@H]1CCC[C@@H]1C(=O)N[C@H]1CCC[C@@H]1C(=O)N[C@@H](CO)CC(=O)N[C@H]1CCC[C@@H]1C(=O)N[C@H]1CCC[C@@H]1C(N)=O)NC(=O)[C@H]1CCC[C@@H]1NC(=O)[C@H]1CCC[C@@H]1N` [H12 MS], the Kd at Gal-1 came to 224 µM; on S100B it was 215 µM.
For `CSCC[C@@H](CC(=O)N[C@H]1CCC[C@@H]1C(=O)N[C@H]1CCC[C@@H]1C(=O)N[C@H](CC(=O)N[C@H]1CCC[C@@H]1C(=O)N[C@H]1CCC[C@@H]1C(N)=O)[C@@H](C)O)NC(=O)[C@H]1CCC[C@@H]1NC(=O)[C@H]1CCC[C@@H]1N` [H12 MT], the Kd on Gal-1 stood at 169 µM; at S100B, 162 µM.
Regarding `N=C(N)NCCC[C@@H](CC(=O)N[C@H]1CCC[C@@H]1C(=O)N[C@H]1CCC[C@@H]1C(N)=O)NC(=O)[C@H]1CCC[C@@H]1NC(=O)[C@H]1CCC[C@@H]1NC(=O)C[C@H](CCC(N)=O)NC(=O)[C@H]1CCC[C@@H]1NC(=O)[C@H]1CCC[C@@H]1N` [H12 QR], the Kd is 431 µM on Gal-1 and 321 µM on S100B.
For the molecule `C[C@@H](CC(=O)N[C@H]1CCC[C@@H]1C(=O)N[C@H]1CCC[C@@H]1C(N)=O)NC(=O)[C@H]1CCC[C@@H]1NC(=O)[C@H]1CCC[C@@H]1NC(=O)C[C@H](CCCNC(=N)N)NC(=O)[C@H]1CCC[C@@H]1NC(=O)[C@H]1CCC[C@@H]1N` [H12 RA], the figures for the Kd at Gal-1 and at S100B were 485 µM and 205 µM, respectively.
For the molecule `C[C@@H](O)[C@@H](CC(=O)N[C@H]1CCC[C@@H]1C(=O)N[C@H]1CCC[C@@H]1C(N)=O)NC(=O)[C@H]1CCC[C@@H]1NC(=O)[C@H]1CCC[C@@H]1NC(=O)C[C@H](CCCNC(=N)N)NC(=O)[C@H]1CCC[C@@H]1NC(=O)[C@H]1CCC[C@@H]1N` [H12 RT], the Kd at Gal-1 was determined as 213 µM; at S100B, 133 µM.
For `N=C(N)NCCC[C@@H](CC(=O)N[C@H]1CCC[C@@H]1C(=O)N[C@H]1CCC[C@@H]1C(N)=O)NC(=O)[C@H]1CCC[C@@H]1NC(=O)[C@H]1CCC[C@@H]1NC(=O)C[C@H](CO)NC(=O)[C@H]1CCC[C@@H]1NC(=O)[C@H]1CCC[C@@H]1N` [H12 SR], the figures for the Kd at Gal-1 and at S100B were 402 µM and 123 µM, respectively.
As for `CC(C)[C@@H](CC(=O)N[C@H]1CCC[C@@H]1C(=O)N[C@H]1CCC[C@@H]1C(=O)N[C@@H](CCCCN)CC(=O)N[C@H]1CCC[C@@H]1C(=O)N[C@H]1CCC[C@@H]1C(N)=O)NC(=O)[C@H]1CCC[C@@H]1NC(=O)[C@H]1CCC[C@@H]1N` [H12 VK], the Kd was 430 µM on Gal-1 and 185 µM at S100B.
Turning to `CSCC[C@@H](CC(=O)N[C@H]1CCC[C@@H]1C(=O)N[C@H]1CCC[C@@H]1C(N)=O)NC(=O)[C@H]1CCC[C@@H]1NC(=O)[C@H]1CCC[C@@H]1NC(=O)C[C@@H](NC(=O)[C@H]1CCC[C@@H]1NC(=O)[C@H]1CCC[C@@H]1N)C(C)C` [H12 VM], the Kd at Gal-1 worked out at 459 µM; at S100B, 303 µM.
For the molecule `CC(C)[C@@H](CC(=O)N[C@H]1CCC[C@@H]1C(=O)N[C@H]1CCC[C@@H]1C(=O)N[C@@H](CCCNC(=N)N)CC(=O)N[C@H]1CCC[C@@H]1C(=O)N[C@H]1CCC[C@@H]1C(N)=O)NC(=O)[C@H]1CCC[C@@H]1NC(=O)[C@H]1CCC[C@@H]1N` [H12 VR], the Kd at Gal-1 worked out at 234 µM; on S100B, 118 µM.
With `CC(C)[C@@H](CC(=O)N[C@H]1CCC[C@@H]1C(=O)N[C@H]1CCC[C@@H]1C(N)=O)NC(=O)[C@H]1CCC[C@@H]1NC(=O)[C@H]1CCC[C@@H]1NC(=O)C[C@@H](NC(=O)[C@H]1CCC[C@@H]1NC(=O)[C@H]1CCC[C@@H]1N)C(C)C` [H12 VV], the Kd on Gal-1 was determined as 439 µM; at S100B, 277 µM.
Taken in the same sequence, the figures for `NC(=O)[C@H]1CCC[C@@H]1NC(=O)[C@H]1CCC[C@@H]1NC(=O)C[C@H](CC(=O)O)NC(=O)[C@H]1CCC[C@@H]1NC(=O)[C@H]1CCC[C@@H]1NC(=O)C[C@H](Cc1c[nH]c2ccccc12)NC(=O)[C@H]1CCC[C@@H]1NC(=O)[C@H]1CCC[C@@H]1N` [H12 WD] were 297 µM and 199 µM.
`NC(=O)[C@H]1CCC[C@@H]1NC(=O)[C@H]1CCC[C@@H]1NC(=O)C[C@H](CCC(=O)O)NC(=O)[C@H]1CCC[C@@H]1NC(=O)[C@H]1CCC[C@@H]1NC(=O)C[C@H](Cc1c[nH]c2ccccc12)NC(=O)[C@H]1CCC[C@@H]1NC(=O)[C@H]1CCC[C@@H]1N` [H12 WE]: the Kd is 256 µM on Gal-1 and 229 µM at S100B.
For `NC(=O)C[C@@H](CC(=O)N[C@H]1CCC[C@@H]1C(=O)N[C@H]1CCC[C@@H]1C(N)=O)NC(=O)[C@H]1CCC[C@@H]1NC(=O)[C@H]1CCC[C@@H]1NC(=O)C[C@H](Cc1c[nH]c2ccccc12)NC(=O)[C@H]1CCC[C@@H]1NC(=O)[C@H]1CCC[C@@H]1N` [H12 WN], in that order: 270 µM and 55 µM.
Consider `NC(=O)CC[C@@H](CC(=O)N[C@H]1CCC[C@@H]1C(=O)N[C@H]1CCC[C@@H]1C(N)=O)NC(=O)[C@H]1CCC[C@@H]1NC(=O)[C@H]1CCC[C@@H]1NC(=O)C[C@H](Cc1c[nH]c2ccccc12)NC(=O)[C@H]1CCC[C@@H]1NC(=O)[C@H]1CCC[C@@H]1N` [H12 WQ], for which the results for the Kd on Gal-1 and on S100B were 304 µM and 53 µM, respectively.
With `C[C@@H](CC(=O)N[C@H]1CCC[C@@H]1C(=O)N[C@H]1CCC[C@@H]1C(N)=O)NC(=O)[C@H]1CCC[C@@H]1NC(=O)[C@H]1CCC[C@@H]1NC(=O)C[C@H](Cc1ccc(O)cc1)NC(=O)[C@H]1CCC[C@@H]1NC(=O)[C@H]1CCC[C@@H]1N` [H12 YA], the Kd was 222 µM at Gal-1 and 95 µM at S100B.
Take `NC(=O)[C@H]1CCC[C@@H]1NC(=O)[C@H]1CCC[C@@H]1NC(=O)C[C@H](CC(=O)O)NC(=O)[C@H]1CCC[C@@H]1NC(=O)[C@H]1CCC[C@@H]1NC(=O)C[C@H](Cc1ccc(O)cc1)NC(=O)[C@H]1CCC[C@@H]1NC(=O)[C@H]1CCC[C@@H]1N` [H12 YD]: the figures for the Kd at Gal-1 and at S100B were 205 µM and 430 µM, respectively.
